The source of these data is US6380218B1, “Nicotinamide derivatives” (Pfizer Inc, priority 1997, dated 2002).

SMILES strings stand for the structures. Structures can show the parent of a compound that is named as a salt.

As usually defined, the melting point is the temperature of the solid-liquid transition. On to `CC(C)(O)c1ccc(CNC(=O)c2cccnc2Oc2ccc(F)cc2)cc1`, for which the melting point fell in the range of 106 to 108 °C.

`O=C(NCc1ccccc1Cl)c1cccnc1Oc1cccnc1` (as salt: HCl) [Example 31, N-(2-Chloro-benzyl)-2-(pyridin-3-yloxy)-nicotinamide] had a melting point of 174 to 176 °C. In the case of `C[C@H](NC(=O)c1cccnc1Oc1cccnc1)c1cccs1` (as salt: HCl) [Example 46, (S)(+)-2-(Pyridin-3-yloxy)-N-(1-thiophen-2-yl-ethyl)-nicotinamide] it was 196 to 198 °C; in that of `C[C@@H](NC(=O)c1cccnc1Oc1cccnc1)c1cccs1` (as salt: HCl) [Example 47, (R)(−)-2-(Pyridin-3-yloxy)-N-(1-thiophen-2-yl-ethyl)-nicotinamide], 197 to 199 °C. In the case of `CN(C)c1cccc(Oc2ncccc2C(=O)NCc2ccccc2Cl)c1` (as salt: HCl) [Example 118, N-(2-Chloro-benzyl)-2-(3-dimethylamino-phenoxy)-nicotinamide] it was 85 to 87 °C; in that of `CC(NC(=O)c1cccnc1Oc1ccc(F)cc1)c1ccc(Cl)s1` (single isomer, unassigned; (+)) [Example 141, (+)-N-[1-(5-Chloro-thiophen-2-yl)-ethyl]-2-(4-fluoro-phenoxy)-nicotinamide], 78 to 80 °C.

Take `CC(O)c1ccc(CNC(=O)c2cccnc2Oc2cccnc2)s1` (single isomer, unassigned; (+)) [Example 205, (+)-N-[5-(1-Hydroxy-ethyl)-thiophen-2-ylmethyl]-2-(pyridin-3-yloxy)-nicotinamide]: the melting point lay within 88 to 90 °C. The result for `CC(O)C1CCC(CNC(=O)c2cccnc2Oc2ccc(F)c(C#N)c2)CC1` (single isomer, unassigned; (-)) [Example 320, (−)-2-(3-Cyano-4-fluoro-phenoxy)-N-[4-(1-hydroxy-ethyl)-cyclohexylmethyl]-nicotinamide] reads 134 to 135 °C; that for `O=C(NCc1cccs1)c1cccnc1Oc1ccc(F)cc1` [Example 1, 2-(4-Fluoro-phenoxy)-N-thiophen-2-ylmethyl-nicotinamide], 89 to 91 °C. The result for `O=C(NCc1ccco1)c1cccnc1Oc1ccc(F)cc1` [Example 2, 2-(4-Fluoro-phenoxy)-N-furan-2-ylmethyl-nicotinamide] reads 71 to 73 °C; that for `O=C(NCc1c(F)cccc1Cl)c1cccnc1Oc1ccc(F)cc1` [Example 5, N-(2-Chloro-6-fluoro-benzyl)-2-(4-fluoro-phenoxy)-nicotinamide], 115 to 118 °C; that for `C[C@H](NC(=O)c1cccnc1Oc1ccc(F)cc1)c1cccs1` [Example 6, (S)(−)2-(4-Fluoro-phenoxy)-N-(1-thiophen-2-yl-ethyl)-nicotinamide], 59 to 61 °C. In the case of `C[C@@H](NC(=O)c1cccnc1Oc1ccc(F)cc1)c1cccs1` [Example 7, (R)(+)2-(4-Fluoro-phenoxy)-N-(1-thiophen-2-yl-ethyl)-nicotinamide] it was 60 to 62 °C; in that of `CC(NC(=O)c1cccnc1Oc1ccc(F)cc1)c1ccc(Cl)s1` (centres unmarked) [Example 8, N-[1-(5-Chloro-thiophen-2-yl)-ethyl]-2-(4-fluoro-phenoxy)-nicotinamide], 87 to 89 °C; in that of `O=C(NCc1ccccc1Cl)c1cccnc1Oc1ccc(F)cc1` [Example 9, N-(2-Chloro-benzyl)-2-(4-fluoro-phenoxy)-nicotinamide], 118 to 120 °C. `O=C(NCc1ccccc1Cl)c1cccnc1Oc1ccc(F)cc1F` [Example 10, N-(2-Chloro-benzyl)-2-(2,4-difluoro-phenoxy)-nicotinamide] showed a melting point of 122 to 124 °C.

Consider `O=C(NCc1ccccc1Cl)c1cccnc1Oc1cccc(F)c1` [Example 11, N-(2-Chloro-benzyl)-2-(3-fluoro-phenoxy)-nicotinamide], for which the melting point was in the range of 115 to 117 °C. The result for `O=C(NCc1ccccc1Cl)c1cccnc1Oc1cccnc1` [Example 12, N-(2-Chloro-benzyl)-2-(pyridin-3-yloxy)-nicotinamide] reads 123 to 125 °C; that for `Cc1ccc(CNC(=O)c2cccnc2Oc2cccnc2)cc1` [Example 13, N-(4-Methyl-benzyl)-2-(pyridin-3-yloxy)-nicotinamide], 91 to 93 °C. Molecule `CC(NC(=O)c1cccnc1Oc1cccnc1)c1ccc(Cl)s1` (centres unmarked) [Example 14, N-[1-(5-Chloro-thiophen-2-yl)-ethyl]-2-(pyridin-3-yloxy)-nicotinamide] registered a melting point of 74 to 76 °C. For `O=C(NCc1ccco1)c1cccnc1Oc1cccnc1` [Example 15, N-Furan-2-ylmethyl-2-(pyridin-3-yloxy)-nicotinamide], the melting point lay in the range of 84 to 86 °C. In the case of `O=C(NCc1ccc(Cl)s1)c1cccnc1Oc1cccnc1` [Example 16, N-(5-Chloro-thiophen-2-ylmethyl)-2-(pyridin-3-yloxy)-nicotinamide] it was 110 to 112 °C; in that of `Cc1ccc(C(C)NC(=O)c2cccnc2Oc2cccnc2)s1` (centres unmarked) [Example 17, N-[1-(5-Methyl-thiophen-2-yl)-ethyl]-2-(pyridin-3-yloxy)-nicotinamide], 162 to 164 °C; in that of `Cc1ccc(CNC(=O)c2cccnc2Oc2cccnc2)s1` [Example 18, N-(5-Methyl-thiophen-2-ylmethyl)-2-(pyridin-3-yloxy)-nicotinamide], 111 to 113 °C.

`Cc1ccc(CNC(=O)c2cccnc2Oc2cccnc2)o1` [Example 19, N-(5-Methyl-furan-2-ylmethyl)-2-(pyridin-3-yloxy)-nicotinamide] registered a melting point of 65 to 67 °C. The result for `Cc1ccsc1CNC(=O)c1cccnc1Oc1cccnc1` [Example 20, N-(3-Methyl-thiophen-2-ylmethyl)-2-(pyridin-3-yloxy)-nicotinamide] reads 89 to 91 °C. In the case of `O=C(NCc1cc(Cl)cs1)c1cccnc1Oc1cccnc1` [Example 21, N-(4-Chloro-thiophen-2-ylmethyl)-2-(pyridin-3-yloxy)-nicotinamide] it was 118 to 120 °C; in that of `O=C(NCc1cc2ccccc2s1)c1cccnc1Oc1cccnc1` [Example 22, N-Benzo[b]thiophen-2-ylmethyl-2-(pyridin-3-yloxy)-nicotinamide], 93 to 95 °C. In the case of `O=C(NCc1ccc(Cl)o1)c1cccnc1Oc1cccnc1` [Example 23, N-(5-Chloro-furan-2-ylmethyl)-2-(pyridin-3-yloxy)-nicotinamide] it was 80 to 82 °C; in that of `O=C(NCc1nccs1)c1cccnc1Oc1cccnc1` [Example 24, 2-(Pyridin-3-yloxy)-N-thiazol-2-ylmethyl-nicotinamide], 94 to 96 °C; in that of `O=C(NCc1ccc(OCC(F)(F)F)cc1)c1cccnc1Oc1cccnc1` [Example 25, 2-(Pyridin-3-yloxy)-N-[4-(2,2,2-trifluoro-ethoxy)-benzyl]-nicotinamide], 98 to 100 °C. Regarding `O=C(NCc1ccccc1F)c1cccnc1Oc1cccnc1` [Example 26, N-(2-Fluoro-benzyl)-2-(pyridin-3-yloxy)-nicotinamide], the melting point lay in the range of 90 to 92 °C. As to `O=C(NCc1ccc(OC(F)F)cc1)c1cccnc1Oc1cccnc1` [Example 27, N-(4-Difluoromethoxy-benzyl)-2-(pyridin-3-yloxy)-nicotinamide], the melting point was 91 to 93 °C. On to `O=C(NCc1ccc(F)cc1)c1cccnc1Oc1cccnc1` [Example 28, N-(4-Fluoro-benzyl]-2-(pyridin-3-yloxy)-nicotinamide], for which the melting point lay in the range of 129 to 131 °C. In the case of `COc1ccc(CNC(=O)c2cccnc2Oc2cccnc2)cc1` [Example 29, N-(4-Methoxy-benzyl)-2-(pyridin-3-yloxy)-nicotinamide] it was 62 to 64 °C; in that of `O=C(NCc1ccc(C(F)(F)F)s1)c1cccnc1Oc1cccnc1` [Example 30, 2-(Pyridin-3-yloxy)-N-(5-trifluoromethyl-thiophen-2-ylmethyl)-nicotinamide], 122 to 124 °C. The result for `O=C(NCc1ccc(F)s1)c1cccnc1Oc1cccnc1` [Example 32, N-(5-Fluoro-thiophen-2-ylmethyl)-2-(pyridin-3-yloxy)-nicotinamide] reads 99 to 101 °C; that for `O=C1Cc2cc(CNC(=O)c3cccnc3Oc3cccnc3)ccc2N1` [Example 33, N-(2-Oxo-2,3-dihydro-1H-indol-5-ylmethyl)-2-(pyridin-3-yloxy)-nicotinamide], 109 to 111 °C. The result for `CC(C)(C)c1cc(CNC(=O)c2cccnc2Oc2cccnc2)cc(C(C)(C)C)c1O` [Example 34, N-(3,5-Di-tert-butyl-4-hydroxy-benzyl)-2-(pyridin-3-yloxy)-nicotinamide] reads 42 to 44 °C; that for `CC(C)(O)c1ccc(CNC(=O)c2cccnc2Oc2cccnc2)cc1` [Example 36, N-[4-(1-Hydroxy-1-methyl-ethyl)-benzyl]-2-(pyridin-3-yloxy)-nicotinamide], 79 to 81 °C. `COC(=O)c1ccc(CNC(=O)c2cccnc2Oc2cccnc2)cc1` [Example 37, 4-({[2-(Pyridin-3-yloxy)-pyridine-3-carbonyl]-amino}-methyl)-benzoicacid methyl ester] gave a melting point of 125 to 127 °C. The result for `CC(C)(O)c1ccc(CNC(=O)c2cccnc2Oc2cccnc2)cc1Cl` [Example 38, N-[3-Chloro-4-(1-hydroxy-1-methyl-ethyl)-benzyl]-2-(pyridin-3-yloxy)-nicotinamide] reads 139 to 141 °C.

`O=C(NCc1ccc2c(c1)OCCC2O)c1cccnc1Oc1cccnc1` (centres unmarked) [Example 41, N-(4-Hydroxy-chroman-7-ylmethyl)-2-(pyridin-3-yloxy)-nicotinamide] yielded a melting point of 134 to 136 °C. The result for `O=C(NCc1ccc(C2(O)CCC2)cc1)c1cccnc1Oc1cccnc1` [Example 42, N-[4-(1-Hydroxy-cyclobutyl)-benzyl]-2-(pyridin-3-yloxy)-nicotinamide] reads 116 to 118 °C.
